US6888016B2, “Mixtures for stimulating glucose up-take” (Loders Croklaan USA LLC, priority 2001, dated 2005)

Test system: 3T3-L1 adipocytes
Assay: Insulin stimulated glucose uptake (ISGU), [3H]2-deoxyglucose incorporation in differentiated adipocytes
Format: cell-based, Murine
Conditions: 3 days incubation; for increase in glucose uptake in combination with CLA over CLA alone: compound A in combination with CLA, 1 nM insulin, significantly higher than CLA alone, P<0.05 Students T-test, FIG. 2
Experimental: Murine (3T3-L1 cells; ATCC CL-173) were seeded into multi-well plates and incubated in growth medium (DMEM supplemented with 10% FCS, 2 mM L-glutamine, 100 iu/ml penicillin and 100 μg/ml streptomycin) at 37° C./5% CO2 until 2 days post-confluence (day 0). Differentiation was carried out approximately according to Iwata et al (Diabetes 2001 50: 1083-1092). Briefly, differentiation was induced by changing to growth medium containing 3-isobutyl-1-methylxanthine (0.5 mM), dexamethasone (0.25 μM) and 1 μM insulin for 3 days, and then growth medium containing 0.8 μM insulin for another 3 days. Finally cells were retained in serum free growth medium until ready for experimentation, typically cells were used between days 6-9.
Pine nut oil (PNO) and palm kernel oil (PKO) fatty acids were prepared by saponification of pine nut oil or palm kernel oil. PNO contains high levels of PUFAs, in particular high levels of pinolenic acid. PKO has high levels of medium chain fatty acids (C8-12). All samples were prepared as 1 mg/ml stocks in ethanol and diluted in media accordingly with the following exceptions. IGF-1 was prepared by initially dissolving in […], followed by the addition of 400 μl PBS supplemented with 1 mg/ml BSA. This was diluted with media to the correct concentration. Ascorbic acid, sodium vanadate and aspartame were made up in DMEM.
Differentiated adipocytes were incubated for a period of 3 days in DMEM (containing 2 mM L-glutamine, 100 iu/ml penicillin, 100 μg/ml streptomycin, 1 nM insulin and 10% FCS) supplemented with or without CLA and/or compound As. The cells were then washed three times with DMEM (containing 1 mM deoxyglucose). Insulin stimulated glucose uptake was carried out according to Iwata et al (Diabetes 2001 50: 1083-1092). Briefly, cells were stimulated with 1 nM insulin in Krebs Ringer Phosphate (KRP) and HEPES buffer [10 mM HEPES, 131.2 mM NaCl, 4.7 mM KCl, 2.5 mM CaCl2, 1.2 mM MgSO4, 2.5 mM sodium phosphate buffer, pH 7.4] with 1% BSA at 37° C. […] Radioactive incorporation was measured by scintillation counting of 100 μl of each cell lysate. […]

With O=C1O[C@H]([C@@H](O)CO)C(O)=C1O [Vit C, Ascorbic acid] the “increase in glucose uptake in combination with CLA over CLA alone” value was 20%.

In the case of Conjugated linoleic acid [CLA], the “insulin stimulated glucose uptake (ISGU), effect of CLA alone” value (CLA fatty acids at 10 or 50 μg/ml, compared with control differentiated adipocytes, radiolabel incorporation (3H-DPM), FIG. 1) is reported as “reduces ISGU compared with the control”.

“IGF-1: IGF-1, purified or in natural extracts; compound A” was tested, and the “increase in glucose uptake in combination with CLA over CLA alone” value was 39%.
